Consider one compound from article PMC5830651 (Molecular Oncology, 2018).

The IC50 is the concentration that gives 50% inhibition.

Common to all, as to assay type: biochemical
In experiment [1] the target is T1, SAP2KA (Homo sapiens, UniProt Q16539).
T1 construct: gene MAPK14; recombinant; printed SAP2KA, read as SAPK2A
Description: in vitro kinase assay. From the text:
in vitro kinase assay on SAP2KA

For experiment [2], the target named is T2, ABL (Homo sapiens, UniProt P00519).
T2 construct: gene ABL1; recombinant
In words: in vitro kinase assay. From the text: in vitro kinase assay on ABL

Experiment [3] has as its target T3, LCK (Homo sapiens, UniProt P06239).
T3 construct: recombinant
Description: in vitro kinase assay. The text has this:
in vitro kinase assay on LCK

For experiment [4], the target named is T4, PDGFB (Homo sapiens, UniProt P09619).
T4 construct: gene PDGFRB; recombinant kinase; printed PDGFB, must be the receptor kinase PDGFR beta
Description: in vitro kinase assay. The text has this: in vitro kinase assay on PDGFB

Experiment [5] concerns the target T5, CDK1/B (CDK1/cyclin B) (Homo sapiens, UniProt P06493).
T5 construct: recombinant human kinase complex; with G2/mitotic-specific cyclin-B1
In words: in vitro kinase assay. The note with it: read-out: CCT068127 Mean IC50 (μmol.L^-1) ± SE; mean of three independent repeats. From the text: in vitro kinase assay on CDK1/B (CDK1/cyclin B)

In experiment [6] the target is T6, ERK2 (Homo sapiens, UniProt P28482).
T6 construct: gene MAPK1; recombinant
In words: in vitro kinase assay. From the text: in vitro kinase assay on ERK2

Experiment [7] deals with T7, CDK5/p35 (Homo sapiens, UniProt Q00535).
T7 construct: recombinant complex, Invitrogen Select Screen service
In words: Invitrogen Select Screen kinase assay. The note with it: read-out: CCT068127 Mean IC50 (μmol.L^-1) ± SE; mean of two determinations. The text has this: Invitrogen Select Screen kinase assay on CDK5/p35

The target of experiment [8] is T8, SRC (Homo sapiens, UniProt P12931).
T8 construct: recombinant
Description: in vitro kinase assay. From the text:
in vitro kinase assay on SRC

The target of experiment [9] is T9, CDK6/D3 (Homo sapiens, UniProt Q00534).
T9 construct: recombinant human kinase complex; with G1/S-specific cyclin-D3
Description: in vitro kinase assay. Conditions: read-out: CCT068127 Mean IC50 (μmol.L^-1) ± SE; mean of three independent repeats. The text has this:
in vitro kinase assay on CDK6/D3

The target of experiment [10] is T10, AURKA (Homo sapiens, UniProt O14965).
T10 construct: recombinant
T10 sequence (O14965 1-403): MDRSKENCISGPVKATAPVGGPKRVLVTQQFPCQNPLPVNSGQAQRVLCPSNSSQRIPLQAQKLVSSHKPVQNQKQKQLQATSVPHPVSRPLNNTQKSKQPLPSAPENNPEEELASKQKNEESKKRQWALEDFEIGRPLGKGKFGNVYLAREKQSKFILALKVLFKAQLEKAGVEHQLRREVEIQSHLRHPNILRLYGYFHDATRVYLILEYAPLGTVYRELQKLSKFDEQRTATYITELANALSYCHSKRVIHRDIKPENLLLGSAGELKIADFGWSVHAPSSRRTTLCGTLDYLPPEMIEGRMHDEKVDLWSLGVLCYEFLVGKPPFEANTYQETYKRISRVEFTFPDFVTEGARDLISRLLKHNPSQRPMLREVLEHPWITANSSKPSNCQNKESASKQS
Description: in vitro kinase assay. From the text: in vitro kinase assay on AURKA

Experiment [11] deals with T11, PLK1 (Homo sapiens, UniProt P53350).
T11 construct: recombinant
Description: in vitro kinase assay. The text has this: in vitro kinase assay on PLK1

The target of experiment [12] is T12, FLT3 (Homo sapiens, UniProt P36888).
T12 construct: recombinant
T12 sequence (P36888 27-993): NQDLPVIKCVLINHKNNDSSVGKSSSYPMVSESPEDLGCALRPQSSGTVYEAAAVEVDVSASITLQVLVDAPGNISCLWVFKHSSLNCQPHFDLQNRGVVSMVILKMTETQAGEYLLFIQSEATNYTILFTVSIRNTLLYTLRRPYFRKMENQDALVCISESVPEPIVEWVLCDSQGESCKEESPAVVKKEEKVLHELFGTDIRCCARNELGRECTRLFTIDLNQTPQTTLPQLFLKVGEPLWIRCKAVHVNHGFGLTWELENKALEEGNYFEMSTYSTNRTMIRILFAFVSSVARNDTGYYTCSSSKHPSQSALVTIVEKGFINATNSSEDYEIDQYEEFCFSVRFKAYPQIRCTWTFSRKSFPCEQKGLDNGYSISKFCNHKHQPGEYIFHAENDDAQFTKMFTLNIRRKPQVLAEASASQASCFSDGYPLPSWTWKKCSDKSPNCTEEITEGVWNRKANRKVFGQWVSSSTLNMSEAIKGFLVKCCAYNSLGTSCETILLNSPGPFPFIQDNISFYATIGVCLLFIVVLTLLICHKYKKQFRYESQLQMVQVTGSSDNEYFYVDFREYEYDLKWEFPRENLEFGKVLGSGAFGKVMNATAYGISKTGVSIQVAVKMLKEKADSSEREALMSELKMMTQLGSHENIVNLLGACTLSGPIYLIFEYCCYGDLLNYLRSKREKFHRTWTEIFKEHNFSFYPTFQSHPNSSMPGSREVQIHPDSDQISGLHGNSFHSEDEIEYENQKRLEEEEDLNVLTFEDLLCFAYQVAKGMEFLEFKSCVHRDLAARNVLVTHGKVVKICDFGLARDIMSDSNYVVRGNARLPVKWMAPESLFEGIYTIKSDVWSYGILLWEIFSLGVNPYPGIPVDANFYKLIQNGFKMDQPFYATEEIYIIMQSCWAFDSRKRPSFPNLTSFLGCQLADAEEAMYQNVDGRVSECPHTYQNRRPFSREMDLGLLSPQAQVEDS
In words: in vitro kinase assay. The text has this:
in vitro kinase assay on FLT3

The structures appear in SMILES notation.

T8 sequence (P12931 2-536): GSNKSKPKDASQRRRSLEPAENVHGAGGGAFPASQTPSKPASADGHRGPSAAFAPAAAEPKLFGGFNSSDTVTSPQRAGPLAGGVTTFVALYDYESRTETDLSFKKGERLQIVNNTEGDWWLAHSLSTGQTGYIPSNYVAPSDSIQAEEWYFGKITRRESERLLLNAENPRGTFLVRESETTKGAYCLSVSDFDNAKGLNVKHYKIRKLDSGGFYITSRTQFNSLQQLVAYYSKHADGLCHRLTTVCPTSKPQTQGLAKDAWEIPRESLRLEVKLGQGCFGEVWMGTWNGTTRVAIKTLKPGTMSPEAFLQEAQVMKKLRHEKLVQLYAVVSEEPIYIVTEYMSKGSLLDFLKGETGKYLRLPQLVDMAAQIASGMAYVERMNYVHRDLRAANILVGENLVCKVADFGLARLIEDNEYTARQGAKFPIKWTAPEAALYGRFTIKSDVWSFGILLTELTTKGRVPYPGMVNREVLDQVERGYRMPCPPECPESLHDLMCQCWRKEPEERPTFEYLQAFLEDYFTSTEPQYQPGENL
T3 sequence (P06239 2-509): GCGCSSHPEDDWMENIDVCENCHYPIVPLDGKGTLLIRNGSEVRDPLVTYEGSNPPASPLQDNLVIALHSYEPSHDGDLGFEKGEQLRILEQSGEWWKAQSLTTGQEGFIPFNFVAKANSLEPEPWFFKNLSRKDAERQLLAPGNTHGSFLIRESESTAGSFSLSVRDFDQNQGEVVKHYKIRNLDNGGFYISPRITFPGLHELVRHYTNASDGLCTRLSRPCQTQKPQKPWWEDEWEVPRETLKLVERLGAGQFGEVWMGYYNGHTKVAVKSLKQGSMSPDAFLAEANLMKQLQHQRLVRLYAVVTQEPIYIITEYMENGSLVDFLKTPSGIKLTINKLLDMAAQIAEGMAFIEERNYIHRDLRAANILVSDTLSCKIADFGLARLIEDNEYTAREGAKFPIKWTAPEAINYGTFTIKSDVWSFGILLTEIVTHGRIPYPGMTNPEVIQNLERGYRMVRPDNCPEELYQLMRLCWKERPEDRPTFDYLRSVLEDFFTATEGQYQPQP
T5 sequence (P06493 whole entry): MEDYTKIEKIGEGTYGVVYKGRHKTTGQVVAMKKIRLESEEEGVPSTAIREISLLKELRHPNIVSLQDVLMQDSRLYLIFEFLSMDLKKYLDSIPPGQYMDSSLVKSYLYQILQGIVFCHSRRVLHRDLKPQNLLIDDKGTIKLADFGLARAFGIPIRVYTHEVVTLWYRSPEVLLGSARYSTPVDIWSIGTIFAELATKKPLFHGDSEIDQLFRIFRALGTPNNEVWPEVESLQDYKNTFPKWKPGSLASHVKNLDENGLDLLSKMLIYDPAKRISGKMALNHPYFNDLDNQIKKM
T5 sequence (P14635 whole entry partner): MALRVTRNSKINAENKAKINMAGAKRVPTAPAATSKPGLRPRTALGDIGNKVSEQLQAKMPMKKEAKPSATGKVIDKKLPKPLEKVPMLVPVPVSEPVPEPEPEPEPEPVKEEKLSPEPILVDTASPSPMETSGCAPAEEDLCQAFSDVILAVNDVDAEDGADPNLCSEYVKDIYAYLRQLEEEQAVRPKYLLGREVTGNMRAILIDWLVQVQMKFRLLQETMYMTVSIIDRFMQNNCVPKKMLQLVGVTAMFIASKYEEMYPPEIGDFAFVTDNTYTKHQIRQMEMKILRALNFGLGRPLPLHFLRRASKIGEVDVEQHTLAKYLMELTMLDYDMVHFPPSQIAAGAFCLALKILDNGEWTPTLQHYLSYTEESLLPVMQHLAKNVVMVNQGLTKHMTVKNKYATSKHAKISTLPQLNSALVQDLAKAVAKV
T7 sequence (Q00535 whole entry): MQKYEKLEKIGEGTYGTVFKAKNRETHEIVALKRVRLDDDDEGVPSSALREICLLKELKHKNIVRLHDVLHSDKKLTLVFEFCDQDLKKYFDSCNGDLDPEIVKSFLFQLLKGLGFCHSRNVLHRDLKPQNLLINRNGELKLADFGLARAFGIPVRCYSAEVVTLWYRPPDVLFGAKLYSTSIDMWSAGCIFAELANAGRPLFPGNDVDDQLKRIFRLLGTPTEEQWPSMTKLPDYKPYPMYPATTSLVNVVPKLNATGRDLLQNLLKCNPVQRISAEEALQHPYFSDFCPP
T7 sequence (Q15078 2-307 partner): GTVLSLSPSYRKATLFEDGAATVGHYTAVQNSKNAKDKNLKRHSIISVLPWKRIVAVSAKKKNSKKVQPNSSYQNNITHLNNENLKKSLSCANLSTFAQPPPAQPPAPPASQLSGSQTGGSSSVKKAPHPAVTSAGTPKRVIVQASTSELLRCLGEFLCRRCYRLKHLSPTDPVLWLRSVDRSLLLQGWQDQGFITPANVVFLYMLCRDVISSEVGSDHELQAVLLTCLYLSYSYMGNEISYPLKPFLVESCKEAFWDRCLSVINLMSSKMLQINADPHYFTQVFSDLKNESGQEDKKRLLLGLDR
T4 sequence (P09619 33-1106): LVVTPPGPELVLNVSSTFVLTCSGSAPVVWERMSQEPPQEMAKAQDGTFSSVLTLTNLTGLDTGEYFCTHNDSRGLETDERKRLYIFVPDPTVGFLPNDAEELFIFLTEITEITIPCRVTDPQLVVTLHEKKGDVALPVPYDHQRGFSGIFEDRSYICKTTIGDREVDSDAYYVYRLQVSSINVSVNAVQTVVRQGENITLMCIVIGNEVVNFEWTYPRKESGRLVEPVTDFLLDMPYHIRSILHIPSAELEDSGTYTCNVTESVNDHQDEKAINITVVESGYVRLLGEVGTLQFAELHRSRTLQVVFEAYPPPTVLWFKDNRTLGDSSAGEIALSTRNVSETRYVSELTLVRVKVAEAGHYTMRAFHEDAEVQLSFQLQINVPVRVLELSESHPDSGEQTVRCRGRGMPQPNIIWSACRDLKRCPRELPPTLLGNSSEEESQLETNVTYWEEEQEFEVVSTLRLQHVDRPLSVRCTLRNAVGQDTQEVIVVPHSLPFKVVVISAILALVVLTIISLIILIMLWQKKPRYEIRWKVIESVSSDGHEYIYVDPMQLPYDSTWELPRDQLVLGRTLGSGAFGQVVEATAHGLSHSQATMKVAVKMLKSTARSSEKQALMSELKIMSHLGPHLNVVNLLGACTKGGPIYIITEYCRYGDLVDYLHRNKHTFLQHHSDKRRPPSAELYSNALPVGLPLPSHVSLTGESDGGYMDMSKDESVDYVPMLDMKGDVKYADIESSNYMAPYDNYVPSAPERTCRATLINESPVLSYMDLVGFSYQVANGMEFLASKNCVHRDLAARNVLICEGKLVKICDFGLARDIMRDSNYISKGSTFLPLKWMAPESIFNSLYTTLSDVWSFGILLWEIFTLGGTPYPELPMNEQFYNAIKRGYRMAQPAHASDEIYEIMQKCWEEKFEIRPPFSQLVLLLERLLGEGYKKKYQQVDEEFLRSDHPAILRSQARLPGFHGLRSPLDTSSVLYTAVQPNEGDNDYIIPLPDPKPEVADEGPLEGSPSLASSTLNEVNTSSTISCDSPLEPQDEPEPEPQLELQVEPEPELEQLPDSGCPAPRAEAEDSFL
T9 sequence (Q00534 whole entry): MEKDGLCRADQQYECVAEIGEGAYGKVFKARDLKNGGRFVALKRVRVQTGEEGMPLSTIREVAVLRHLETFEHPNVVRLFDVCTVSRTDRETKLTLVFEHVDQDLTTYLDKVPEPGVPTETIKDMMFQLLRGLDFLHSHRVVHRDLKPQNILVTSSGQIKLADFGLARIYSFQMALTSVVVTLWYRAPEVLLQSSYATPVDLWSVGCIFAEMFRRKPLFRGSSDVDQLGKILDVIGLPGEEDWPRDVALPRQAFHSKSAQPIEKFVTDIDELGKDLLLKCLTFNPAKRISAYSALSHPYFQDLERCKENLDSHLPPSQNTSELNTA
T9 sequence (P30281 whole entry partner): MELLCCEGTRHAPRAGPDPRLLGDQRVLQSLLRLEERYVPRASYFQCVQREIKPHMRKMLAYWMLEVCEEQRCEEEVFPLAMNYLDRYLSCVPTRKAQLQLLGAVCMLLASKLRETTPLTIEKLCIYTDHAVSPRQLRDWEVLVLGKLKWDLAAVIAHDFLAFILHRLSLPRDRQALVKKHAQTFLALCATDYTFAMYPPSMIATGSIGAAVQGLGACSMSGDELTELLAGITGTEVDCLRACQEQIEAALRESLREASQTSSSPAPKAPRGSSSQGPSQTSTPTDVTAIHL
T6 sequence (P28482 2-360): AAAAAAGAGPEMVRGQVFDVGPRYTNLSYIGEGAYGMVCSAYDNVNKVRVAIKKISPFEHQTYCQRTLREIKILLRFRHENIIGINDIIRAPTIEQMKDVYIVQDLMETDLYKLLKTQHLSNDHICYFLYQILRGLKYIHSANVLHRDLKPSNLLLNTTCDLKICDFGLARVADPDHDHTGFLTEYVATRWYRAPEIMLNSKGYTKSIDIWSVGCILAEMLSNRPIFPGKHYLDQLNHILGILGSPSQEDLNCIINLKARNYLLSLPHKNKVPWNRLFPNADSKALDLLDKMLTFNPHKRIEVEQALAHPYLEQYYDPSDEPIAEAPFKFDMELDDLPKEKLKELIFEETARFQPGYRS
T1 sequence (Q16539 2-360): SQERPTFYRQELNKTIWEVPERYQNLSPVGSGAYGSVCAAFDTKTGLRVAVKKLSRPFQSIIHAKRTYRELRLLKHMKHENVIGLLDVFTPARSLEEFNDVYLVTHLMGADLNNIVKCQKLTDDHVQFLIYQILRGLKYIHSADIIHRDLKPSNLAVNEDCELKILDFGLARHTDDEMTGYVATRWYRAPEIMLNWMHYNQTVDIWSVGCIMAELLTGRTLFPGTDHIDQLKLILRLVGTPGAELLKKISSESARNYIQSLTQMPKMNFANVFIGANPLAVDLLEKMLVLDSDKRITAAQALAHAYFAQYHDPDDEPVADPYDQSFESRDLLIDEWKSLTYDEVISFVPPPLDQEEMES

With `CC[C@H](Nc1nc(NCc2cccnc2)c2ncn(C(C)C)c2n1)[C@@H](C)O` [CCT068127], the IC50 in experiment [1] was above 10 µM; in experiment [2], above 10 µM; in experiment [3], above 10 µM; in [4], above 10 µM; in [5], 1.1 ± 0.29 µmol/L; in [6], above 10 µM. The IC50 was 0.07 µmol/L in experiment [7]; above 10 µM in [8]; 6.2 ± 0.6 µmol/L in [9]; above 10 µM in experiment [10]; above 10 µM in experiment [11]; above 10 µM in [12].
